According to paper PMC7769078 (International Journal of Nanomedicine, 2020):

Columns and labels:
zebrafish larvae (7 dpf) = assay: C6-NPs endocytosis in larval zebrafish with endocytic inhibitors; assay type: in vivo, zebrafish (Danio rerio); conditions: 7 dpf larvae, 30 min inhibitor, C6-NPs 100 ng/mL 30 min
SH-SY5Y cells = assay: Cytoprotection against MPP+-induced cell death in SH-SY5Y cells; assay type: cell-based, human; conditions: for viability of MPP+-treated SH-SY5Y cells: 2 h pre-treatment, then 2 mM MPP+ 36 h

With `CN(C)CCCN1c2ccccc2Sc2ccc(Cl)cc21` [CPZ, chlorpromazine] as the compound, how does the “inhibitory effect on C6-NPs internalization in zebrafish larvae” value (zebrafish larvae (7 dpf)) read?
Its value is “most profound inhibitory effect”.

For `C[n+]1ccc(-c2ccccc2)cc1` [MPP^+, 1-methyl-4-phenylpyridinium ion], which “cell death induced in SH-SY5Y cells” value (SH-SY5Y cells; 2 mM MPP+, 36 h) is on record?
The value was 47.6%.

Which results are given for Ginkgolide B [GB]?
viability of MPP+-treated SH-SY5Y cells (SH-SY5Y cells; 1 μM): 60%; viability of MPP+-treated SH-SY5Y cells (SH-SY5Y cells; 5 μM): 65%; viability of MPP+-treated SH-SY5Y cells (SH-SY5Y cells; 10 μM): 71%; viability of MPP+-treated SH-SY5Y cells (SH-SY5Y cells; 20 μM): 78%

Which “inhibitory effect on C6-NPs internalization in zebrafish larvae” value (zebrafish larvae (7 dpf)) does the source give for methyl-β-cyclodextrin [MβCD] here?
Its value is “most profound inhibitory effect”.
